This passage reports T/C results from PubChem BioAssay AID270 (DTP/NCI, 2004).

Each structure is given as a SMILES string. Several values for one entry are separate records, joined by “and”; a condition that tells them apart may be missing. Equal entries are not always repeated. Results filed as inconclusive are left out.

The test system of the assay is BDF1 mice, s.c. Lewis lung carcinoma, T/C %. Kind of assay: NCI In Vivo Anticancer Drug Screen. Data for tumor model Lewis Lung Carcinoma (subcutaneous) in B6D2F1 (BDF1) mice. In a few lines:
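Transplanted tumors grown in mice; compound vs vehicle dosing; endpoint survival or tumor size; ratio T/C.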

Regarding `COC1C(OC(=O)c2ccc(C)[nH]2)C(O)C(Oc2ccc3c(O)c(NC(=O)c4ccc(O)c(CC=C(C)C)c4)c(=O)oc3c2Cl)OC1(C)C` (centres undefined), the T/C was 113 % of control (endpoint: median survival time, dose: 0.38 mg/kg/injection, schedule: Q01DX009 (ip), vehicle: other, higher = longer survival); 91 % of control (endpoint: median survival time, dose: 0.75 mg/kg/injection, schedule: Q01DX009 (ip), vehicle: other, higher = longer survival); 88 % of control (endpoint: median survival time, dose: 3.0 mg/kg/injection, schedule: Q01DX007 (ip), vehicle: other, higher = longer survival); 117 % of control (endpoint: median survival time, dose: 3.0 mg/kg/injection, schedule: Q01DX009 (ip), vehicle: other, higher = longer survival); 93 % of control (endpoint: median survival time, dose: 6.0 mg/kg/injection, schedule: Q01DX007 (ip), vehicle: other, higher = longer survival); 98 % of control (endpoint: median survival time, dose: 6.0 mg/kg/injection, schedule: Q01DX009 (ip), vehicle: other, higher = longer survival). For the same compound, the T/C is, setting by setting: (endpoint: median survival time, dose: 12.0 mg/kg/injection, schedule: Q01DX007 (ip), vehicle: other, higher = longer survival) 98 % of control; (endpoint: median survival time, dose: 24.0 mg/kg/injection, schedule: Q01DX007 (ip), vehicle: other, higher = longer survival) 91 % of control; (endpoint: median survival time, dose: 24.0 mg/kg/injection, schedule: Q01DX009 (ip), vehicle: other, higher = longer survival) 88 % of control; (endpoint: median survival time, dose: 25.0 mg/kg/injection, schedule: Q01DX009 (ip), vehicle: other, higher = longer survival) 90 % of control; (endpoint: median survival time, dose: 48.0 mg/kg/injection, schedule: Q01DX007 (ip), vehicle: other, higher = longer survival) 107 % of control; (endpoint: median survival time, dose: 50.0 mg/kg/injection, schedule: Q01DX009 (ip), vehicle: other, higher = longer survival) 105 % of control.
As for `COC(COC(N)=O)C1=C(N2CC2)C(=O)C(C)=C(N2CC2)C1=O` (centres undefined), the T/C runs as follows: (endpoint: median survival time, dose: 0.03 mg/kg/injection, schedule: Q01DX009 (ip), vehicle: Klucel (hydroxypropylcellulose) (HPC), higher = longer survival) 96 % of control; (endpoint: median survival time, dose: 0.12 mg/kg/injection, schedule: Q01DX009 (ip), vehicle: Klucel (hydroxypropylcellulose) (HPC), higher = longer survival) 103 % of control; (endpoint: median survival time, dose: 0.25 mg/kg/injection, schedule: Q01DX009 (ip), vehicle: Klucel (hydroxypropylcellulose) (HPC), higher = longer survival) 107 % of control; (endpoint: median survival time, dose: 0.5 mg/kg/injection, schedule: Q01DX009 (ip), vehicle: Klucel (hydroxypropylcellulose) (HPC), higher = longer survival) 119 % of control; (endpoint: median survival time, dose: 1.0 mg/kg/injection, schedule: Q01DX009 (ip), vehicle: Klucel (hydroxypropylcellulose) (HPC), higher = longer survival) 93 % of control.
`O=NN(CCCl)C(=O)Nc1ccc2c(c1)OCO2`: the T/C is 98 % of control (endpoint: median survival time, dose: 3.13 mg/kg/injection, schedule: Q01DX009 (ip), vehicle: saline with Tween-80, higher = longer survival); 116 % of control (endpoint: median survival time, dose: 6.25 mg/kg/injection, schedule: Q01DX009 (ip), vehicle: saline with Tween-80, higher = longer survival); 102 % of control (endpoint: median survival time, dose: 12.5 mg/kg/injection, schedule: Q01DX009 (ip), vehicle: saline with Tween-80, higher = longer survival).
Take `NC(C/[N+]([O-])=N/O)C(=O)O` (centres undefined): the T/C (endpoint: median survival time, dose: 8.78 mg/kg/injection, schedule: Q01DX010 (ip), vehicle: alkali diluted with saline, higher = longer survival) is 103 % of control and 105 % of control; the T/C (endpoint: median survival time, dose: 13.2 mg/kg/injection, schedule: Q01DX010 (ip), vehicle: alkali diluted with saline, higher = longer survival) was 120 % of control and 121 % of control; the T/C (endpoint: median survival time, dose: 19.8 mg/kg/injection, schedule: Q01DX010 (ip), vehicle: alkali diluted with saline, higher = longer survival) is 102 % of control; the T/C (endpoint: median survival time, dose: 29.6 mg/kg/injection, schedule: Q01DX010 (ip), vehicle: alkali diluted with saline, higher = longer survival) was 105 % of control; the T/C (endpoint: median survival time, dose: 44.4 mg/kg/injection, schedule: Q01DX010 (ip), vehicle: alkali diluted with saline, higher = longer survival) is 114 % of control and 116 % of control; the T/C (endpoint: median survival time, dose: 66.7 mg/kg/injection, schedule: Q01DX010 (ip), vehicle: alkali diluted with saline, higher = longer survival) is 117 % of control. Further, the T/C (endpoint: median survival time, dose: 100.0 mg/kg/injection, schedule: Q01DX010 (ip), vehicle: alkali diluted with saline, higher = longer survival) is 98 % of control and the T/C (endpoint: median survival time, dose: 1000.0 mg/kg/injection, schedule: Q01DX001 (ip), vehicle: saline, higher = longer survival) is 96 % of control.
In the case of `O=NN(CCF)C(=O)NC1CCS(=O)(=O)CC1`, the T/C was 120 % of control (endpoint: median survival time, dose: 9.0 mg/kg/injection, schedule: Q01DX001 (ip), vehicle: other, higher = longer survival); 109 % of control (endpoint: median survival time, dose: 14.0 mg/kg/injection, schedule: Q01DX001 (ip), vehicle: other, higher = longer survival); 121 % of control (endpoint: median survival time, dose: 21.0 mg/kg/injection, schedule: Q01DX001 (ip), vehicle: other, higher = longer survival); 107 % of control (endpoint: median survival time, dose: 32.0 mg/kg/injection, schedule: Q01DX001 (ip), vehicle: other, higher = longer survival); 65 % of control (endpoint: median tumor weight (est.), dose: 11.0 mg/kg/injection, schedule: Q01DX001 (ip), vehicle: other, higher = larger tumour); 65 % of control (endpoint: median tumor weight (est.), dose: 21.0 mg/kg/injection, schedule: Q01DX001 (ip), vehicle: other, higher = larger tumour). Also, the T/C (endpoint: median tumor weight (est.), dose: 32.0 mg/kg/injection, schedule: Q01DX001 (ip), vehicle: other, higher = larger tumour) is 10 % of control.
Regarding `O=C(O)CCc1c[nH]c2ccc(N(CCCl)CCCl)cc12`, the T/C runs as follows: (endpoint: mean tumor weight, dose: 0.7 mg/kg/injection, schedule: Q01DX011 (ip), vehicle: carboxymethylcellulose (CMC), higher = larger tumour) 74 % of control; (endpoint: mean tumor weight, dose: 1.5 mg/kg/injection, schedule: Q01DX011 (ip), vehicle: carboxymethylcellulose (CMC), higher = larger tumour) 79 % of control; (endpoint: mean tumor weight, dose: 3.0 mg/kg/injection, schedule: Q01DX011 (ip), vehicle: carboxymethylcellulose (CMC), higher = larger tumour) 51 % of control.
`O=C(O)Cc1ccc(C2CCCCC2)cc1`: the T/C was 67 % of control (endpoint: mean tumor weight, dose: 150.0 mg/kg/injection, schedule: Q01DX011 (ip), vehicle: carboxymethylcellulose (CMC), higher = larger tumour); 88 % of control (endpoint: mean tumor weight, dose: 225.0 mg/kg/injection, schedule: Q01DX011 (ip), vehicle: carboxymethylcellulose (CMC), higher = larger tumour); 100 % of control (endpoint: mean tumor weight, dose: 335.0 mg/kg/injection, schedule: Q01DX011 (ip), vehicle: carboxymethylcellulose (CMC), higher = larger tumour).
Regarding `C=C1C(C)C2C(Cc3ccccc3)NC(=O)C23C(OC(C)=O)C=CC(C)(O)C(=O)C(C)C/C=C/C3C1O` (centres undefined), the T/C runs as follows: (endpoint: median survival time, dose: 0.31 mg/kg/injection, schedule: Q01DX009 (ip), vehicle: Klucel (hydroxypropylcellulose) (HPC), higher = longer survival) 121 % of control; (endpoint: median survival time, dose: 0.62 mg/kg/injection, schedule: Q01DX009 (ip), vehicle: Klucel (hydroxypropylcellulose) (HPC), higher = longer survival) 124 % of control; (endpoint: median survival time, dose: 1.25 mg/kg/injection, schedule: Q01DX009 (ip), vehicle: Klucel (hydroxypropylcellulose) (HPC), higher = longer survival) 110 % of control; (endpoint: median survival time, dose: 2.5 mg/kg/injection, schedule: Q01DX009 (ip), vehicle: Klucel (hydroxypropylcellulose) (HPC), higher = longer survival) 118 % of control; (endpoint: median survival time, dose: 5.0 mg/kg/injection, schedule: Q01DX009 (ip), vehicle: Klucel (hydroxypropylcellulose) (HPC), higher = longer survival) 109 % of control.
Consider `Cc1cc(CCl)c(C)c(Br)c1C`, for which the T/C was 108 % of control (endpoint: median survival time, dose: 1.5 mg/kg/injection, schedule: Q01DX009 (ip), vehicle: Klucel (hydroxypropylcellulose) (HPC), higher = longer survival); 120 % of control (endpoint: median survival time, dose: 3.0 mg/kg/injection, schedule: Q01DX009 (ip), vehicle: Klucel (hydroxypropylcellulose) (HPC), higher = longer survival); 95 % of control (endpoint: median survival time, dose: 6.0 mg/kg/injection, schedule: Q01DX009 (ip), vehicle: Klucel (hydroxypropylcellulose) (HPC), higher = longer survival).
Consider `C[C@]12CCC(=O)C=C1CC[C@@H]1[C@@H]2[C@@H](O)C[C@@]2(C)[C@H]1CC[C@]2(O)C(=O)CO`, for which the T/C is 98 % of control (endpoint: median survival time, dose: 40.0 mg/kg/injection, schedule: Q02DX009 (ip), vehicle: Klucel (hydroxypropylcellulose) (HPC), higher = longer survival); 96 % of control (endpoint: median survival time, dose: 80.0 mg/kg/injection, schedule: Q02DX009 (ip), vehicle: Klucel (hydroxypropylcellulose) (HPC), higher = longer survival); 97 % of control (endpoint: median survival time, dose: 160.0 mg/kg/injection, schedule: Q02DX009 (ip), vehicle: Klucel (hydroxypropylcellulose) (HPC), higher = longer survival); 88 % of control (endpoint: median survival time, dose: 640.0 mg/kg/injection, schedule: Q02DX009 (ip), vehicle: Klucel (hydroxypropylcellulose) (HPC), higher = longer survival).
For `CC(C)(c1ccccc1)c1ccc(O)cc1`, the T/C (endpoint: mean tumor weight, dose: 45.0 mg/kg/injection, schedule: Q01DX011 (ip), vehicle: carboxymethylcellulose (CMC), higher = larger tumour) was 82 % of control and the T/C (endpoint: mean tumor weight, dose: 65.0 mg/kg/injection, schedule: Q01DX011 (ip), vehicle: carboxymethylcellulose (CMC), higher = larger tumour) is 60 % of control.
As to `O=C1c2c(O)ccc(O)c2C(=O)c2c(NCCNCCO)ccc(NCCNCCO)c21`, the T/C was 88 % of control (endpoint: median survival time, dose: 0.25 mg/kg/injection, schedule: Q01DX009 (ip), vehicle: acid diluted with saline, higher = longer survival); 95 % of control (endpoint: median survival time, dose: 0.5 mg/kg/injection, schedule: Q01DX009 (ip), vehicle: acid diluted with saline, higher = longer survival); 86 % of control and 106 % of control and 114 % of control (endpoint: median survival time, dose: 0.5 mg/kg/injection, schedule: Q01DX009 (ip), vehicle: saline with Tween-80, higher = longer survival); 102 % of control (endpoint: median survival time, dose: 1.0 mg/kg/injection, schedule: Q01DX009 (ip), vehicle: acid diluted with saline, higher = longer survival); 104 % of control and 105 % of control and 106 % of control (endpoint: median survival time, dose: 1.0 mg/kg/injection, schedule: Q01DX009 (ip), vehicle: saline with Tween-80, higher = longer survival); 89 % of control (endpoint: median survival time, dose: 1.0 mg/kg/injection, schedule: Q## X004 (ip), vehicle: acid diluted with saline, higher = longer survival). Further, the T/C (endpoint: median survival time, dose: 2.0 mg/kg/injection, schedule: Q01DX009 (ip), vehicle: saline with Tween-80, higher = longer survival) is 95 % of control; the T/C (endpoint: median survival time, dose: 2.0 mg/kg/injection, schedule: Q## X004 (ip), vehicle: acid diluted with saline, higher = longer survival) was 89 % of control; the T/C (endpoint: median survival time, dose: 4.0 mg/kg/injection, schedule: Q## X004 (ip), vehicle: acid diluted with saline, higher = longer survival) was 101 % of control.
